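Tested at 5 concentrations; 48 h exposure; 96-well plates; endpoints linearly interpolated, else capped at highest concentration. TGI marks complete inhibition of growth.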
Experiments:
Test in all cases: NCI anticancer screen, dose series, 48 h
[1] = test system: 786-0 renal
[2] = test system: A498 renal
[3] = test system: A549 NSCLC
[4] = test system: ACHN renal
[5] = test system: BT-549 breast
[6] = test system: CAKI-1 renal
[7] = test system: CCRF-CEM leukemia
[8] = test system: COLO 205 colon
[9] = test system: DU-145 prostate
[10] = test system: EKVX NSCLC
[11] = test system: HCC-2998 colon
[12] = test system: HCT-116 colon
[13] = test system: HCT-15 colon
[14] = test system: HL-60(TB) leukemia
[15] = test system: HOP-62 NSCLC
[16] = test system: HOP-92 NSCLC
[17] = test system: HS 578T breast
[18] = test system: HT29 colon
[19] = test system: IGROV1 ovarian
[20] = test system: K-562 leukemia
[21] = test system: KM12 colon
[22] = test system: LOX IMVI melanoma
[23] = test system: M14 melanoma
[24] = test system: MALME-3M melanoma
[25] = test system: MCF7 breast
[26] = test system: MDA-MB-231 breast
[27] = test system: MDA-MB-435
[28] = test system: MDA-N
[29] = test system: MOLT-4 leukemia
[30] = test system: NCI-H226 lung
[31] = test system: NCI-H23 lung
[32] = test system: NCI-H460 lung
[33] = test system: NCI-H522 lung
[34] = test system: NCI/ADR-RES ovarian
[35] = test system: OVCAR-3 ovarian
[36] = test system: OVCAR-4 ovarian
[37] = test system: OVCAR-5 ovarian
[38] = test system: OVCAR-8 ovarian
[39] = test system: PC-3 prostate
[40] = test system: RXF 393 renal
[41] = test system: SF-268 CNS
[42] = test system: SF-295 CNS
[43] = test system: SF-539 CNS
[44] = test system: SK-MEL-2 melanoma
[45] = test system: SK-MEL-28 melanoma
[46] = test system: SK-MEL-5 melanoma
[47] = test system: SK-OV-3 ovarian
[48] = test system: SN12C renal
[49] = test system: SNB-19 CNS
[50] = test system: SNB-75 CNS
[51] = test system: SR leukemia
[52] = test system: SW-620 colon
[53] = test system: T-47D breast
[54] = test system: TK-10 renal
[55] = test system: U251 CNS
[56] = test system: UACC-257 melanoma
[57] = test system: UACC-62 melanoma
[58] = test system: UO-31 renal
[59] = test system: RPMI-8226 leukemia

Measured: TGI

CCN=c1nc2sc3c(c2c(NC(=S)NCC)s1)CCN(N1CCc2c(sc4nc(=NCC)sc(NC(=S)NCC)c24)C1)C3
53.2 µM: [40]
52.3 µM: [12]
84.7 µM: [16]
82.6 µM: [26]
39.5 µM: [43]
not listed: [59]
> 100 µM: all other assays above

O=S1OC[C@H](CCCl)O1 (stereo not given in full)
not listed: [40] | [41]
> 100 µM: all other assays above

Source: PubChem BioAssay (NCI)
